{"source": "patent US8435970B2", "about": "(priority 2006, dated 2013)", "key": {"[1]": {"tested_on": "human tumour derived cell lines engrafted sub-cutaneously", "conditions": "nude mice, sub-cutaneous human tumour xenografts"}, "[2]": {"tested_on": "primary human mammary epithelial cells", "assay": "In vitro studies with normal cells", "conditions": "24 h compound treatment, cf. tumor cells"}, "[3]": {"conditions": "citrate buffer, pH 4.5, aqueous buffer"}, "[4]": {"assay": "Gravimetric vapour sorption (GVS)", "assay_type": "physicochemical", "conditions": "for hygroscopic behaviour (GVS isotherm): 0 to 95% RH, 25° C.", "description": "E. Gravimetric Vapour Sorption (GVS):\nThe sample size was ca. 10-25 mg. […] The sample was loaded and unloaded at room humidity and temperature (ca. 40% RH, 25° C.) and analysed afterwards by XRPD (using a Bruker AXS C2 GADDS system)."}, "[5]": {"tested_on": "Aurora (Histone H3 phosphorylation)", "assay": "Western blotting assay of downstream substrate phosphorylation", "assay_type": "cell-based", "conditions": "western blot; concentration of inhibition"}, "OVCAR-3 tumour cells": {"tested_on": "OVCAR-3 tumour cells", "conditions": "concentrations of 50 and 100 microM; PKB amplified; cited from earlier work"}}, "note": "Where a name gives a salt, the structure may show the parent alone."}
{"smiles": "O=C(Nc1c[nH]nc1-c1nc2cc(CN3CCOCC3)ccc2[nH]1)NC1CC1", "note": "[compound of formula (I)]", "values": [{"measurement": "anti-tumour action as a single agent", "setting": "[1]", "value": "anti-tumour action"}, {"measurement": "effect on normal checkpoint competent cells", "setting": "[2]", "value": "reversible G2/M arrest"}]}
{"smiles": "O=C(Nc1c[nH]nc1-c1nc2cc(CN3CCOCC3)ccc2[nH]1)NC1CC1", "note": "[free base]", "values": [{"measurement": "solubility", "setting": "[3]", "value": "~80", "unit": "mg/mL"}, {"measurement": "hygroscopic behaviour (GVS isotherm)", "setting": "[4]; listed as Free Base", "value": "hygroscopic"}, {"measurement": "sample weight difference between 0% R.H and 95% R.H.", "setting": "[4]; GVS", "value": "approximately 9%"}]}
{"smiles": "O=C(Nc1c[nH]nc1-c1nc2cc(CN3CCOCC3)ccc2[nH]1)NC1CC1", "values": [{"measurement": "Inhibition of Histone H3 phosphorylation (Aurora)", "setting": "[5]", "value": "10 to 30", "unit": "nM"}]}
{"smiles": "O=C(Nc1c[nH]nc1-c1nc2cc(CN3CCOCC3)ccc2[nH]1)NC1CC1", "note": "[L-lactate salt]", "values": [{"measurement": "hygroscopic behaviour (GVS isotherm)", "setting": "[4]", "value": "does not display hygroscopic behaviour"}]}
{"smiles": "O=S(=O)(NCCNCC=C(c1ccccc1)c1ccccc1)c1cccc2cnccc12", "note": "[NL-71-101]", "values": [{"measurement": "apoptosis induction", "setting": "OVCAR-3 tumour cells", "value": "induced apoptosis"}]}
